54 compounds from patent publication US9630947B2, “Therapeutic compounds and related methods of use” (OTSUKA PHARMACEUTICAL CO., LTD., priority 2009, dated 2017) can be followed below.

In this assay the target is T1, purified STEP46 enzyme (Homo sapiens, UniProt P54829).
T1 sequence (P54829 1-565): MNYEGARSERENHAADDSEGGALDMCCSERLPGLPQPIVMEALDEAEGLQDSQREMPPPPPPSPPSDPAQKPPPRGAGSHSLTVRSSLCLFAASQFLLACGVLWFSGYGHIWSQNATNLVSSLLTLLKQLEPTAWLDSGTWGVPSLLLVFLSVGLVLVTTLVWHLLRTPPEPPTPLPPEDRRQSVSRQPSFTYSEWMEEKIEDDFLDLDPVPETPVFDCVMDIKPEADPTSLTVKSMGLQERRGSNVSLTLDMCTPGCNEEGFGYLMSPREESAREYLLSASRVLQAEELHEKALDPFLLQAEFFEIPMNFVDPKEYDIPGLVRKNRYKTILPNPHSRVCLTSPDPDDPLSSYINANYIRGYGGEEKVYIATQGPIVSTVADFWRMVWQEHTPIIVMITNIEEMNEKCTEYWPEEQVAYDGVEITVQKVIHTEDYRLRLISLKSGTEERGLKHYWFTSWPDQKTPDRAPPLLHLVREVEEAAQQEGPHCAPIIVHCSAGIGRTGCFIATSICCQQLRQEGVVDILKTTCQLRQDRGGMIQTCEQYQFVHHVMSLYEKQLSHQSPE
The assay can be described thus: STEP46 biochemical assay (DiFMUP fluorescence phosphatase assay). The conditions noted are these: DiFMUP 10 μM, read-out: STEP IC50. The essentials: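 Compounds preincubated 30 min at room temperature with purified STEP46 (1 ng/well) in 50 mM Hepes, 1 mM DTT, 0.02% Brij35, then 10 μM DiFMUP (final) added for 90 min at 27 °C; 2% DMSO, fluorescence at 360/460 nm. IC50 from four-parameter fit of % inhibition; activators reported as negative % inhibition at 25, 50 and 100 uM.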
For the compound `COc1ccc2nc(-c3cccnc3)nc(Nc3ccc(Br)cc3)c2c1` [Compound 421], the IC50 is over 10000 nM.
The same measure for `COc1ccc2nc(-c3cccnc3)nc(Oc3ccccc3)c2c1` [Compound 348]: 1000 to 10000 nM; for `N#Cc1cccc(Nc2nc(-c3cccnc3)nc3cc(-c4ccc(F)cc4)ccc23)c1` [Compound 709]: under 1000 nM; for `COc1ccc2nc(-c3cccnc3)nc(Nc3cccc(-c4ccccc4)c3)c2c1` [Compound 426]: over 10000 nM.
The same measure for `Fc1ccc(Nc2nc(-c3ccncn3)nc3ccccc23)cc1Cl` [Compound 1206]: 1000 to 10000 nM.
The same measure for `Cc1cc(Cl)cc2c(Nc3cc(Cl)cc(Cl)c3)nc(-c3cnccn3)nc12` [Compound 1229]: 1000 to 10000 nM; for `CNc1nc(-c2cccnc2)nc2cc(-c3cccc(OC)c3)c(C)cc12` [Compound 1412]: 1000 to 10000 nM.
Consider `CCOc1ccc(-c2ccc3nc(-c4cccnc4)nc(Nc4ccc(F)c(Cl)c4)c3c2)cn1` [Compound 661], for which the IC50 was under 1000 nM.
The same measure for `Cc1ccc(F)c(-c2ccc3nc(-c4cccnc4)nc(Nc4ccc(F)c(Cl)c4)c3c2)c1` [Compound 669]: under 1000 nM; for `COc1ccc2nc(-c3cccnc3)nc(Nc3ccc4ccoc4c3)c2c1` [Compound 314]: 1000 to 10000 nM.
The same measure for `CNc1nc(-c2cccnc2)nc2cc(-c3cccc(Cl)c3)ccc12` [Compound 1353]: 1000 to 10000 nM; for `NC(=O)c1ccccc1Nc1nc(-c2cnccn2)nc2cc(Cl)ccc12` [Compound 1143]: 1000 to 10000 nM.
Then `COc1ccc2nc(-c3cccnc3)nc(Nc3nc(-c4cc(F)cc(F)c4)cs3)c2c1` [Compound 457], with 1000 to 10000 nM; and `CN(C)c1nc(-c2cccnc2)nc2ccc(-c3cccc([N+](=O)[O-])c3)cc12` [Compound 1335], with 1000 to 10000 nM.
On to `COc1ccc2nc(-c3cccnc3)nc(Nc3ccccc3C(=O)NC(C)c3ccc(C(F)(F)F)cc3)c2c1` (stereo not drawn) [Compound 889], for which the IC50 lay in the range of 1000 to 10000 nM.
Then `Fc1ccc(-c2ccc3nc(-c4cccnc4)nc(Nc4ccc(F)c(Cl)c4)c3c2)c(F)c1` [Compound 671], with 1000 to 10000 nM; and `NC(=O)c1ccccc1Nc1nc(-c2cccnc2)nc2cc(Br)ccc12` [Compound 699], with under 1000 nM.
Consider `N#Cc1cccc(-c2ccc3c(Nc4ccc(F)c(Cl)c4)nc(-c4cccnc4)nc3c2)c1` [Compound 686], for which the IC50 was under 1000 nM.
Then `CN(C)c1ccc2nc(-c3ccnnc3)nc(Nc3cccc(OC(F)F)c3)c2c1` [Compound 1153], with 1000 to 10000 nM; and `Fc1ccc(-c2ccc3nc(-c4cccnc4)nc(Nc4ccc(F)c(Cl)c4)c3c2)cc1` [Compound 638], with 1000 to 10000 nM; and `CN(C)c1ccc(-c2ccc3c(Nc4ccc(F)c(Cl)c4)nc(-c4cccnc4)nc3c2)cc1` [Compound 694], with under 1000 nM.
Then `Fc1ccc(Nc2nc(-c3cccnc3)nc3cc(-c4cccc(F)c4F)ccc23)cc1Cl` [Compound 697], with 1000 to 10000 nM.
The same measure for `c1cncc(-c2ccc3nc(-c4cccnc4)nc(Nc4ccc5ccsc5c4)c3c2)c1` [Compound 313]: under 1000 nM; for `CNc1c(-c2cccc(C#N)c2)ccc2nc(-c3cccnc3)nc(C)c12` [Compound 1423]: over 10000 nM.
On to `COc1ccccc1-c1ccc2nc(-c3cccnc3)nc(Nc3ccc(F)c(Cl)c3)c2c1` [Compound 637], for which the IC50 is 1000 to 10000 nM.
Then `COc1ccc2nc(-c3cccnc3)nc(Nc3ccc4oc(=O)n(C)c4c3)c2c1` [Compound 318], with 1000 to 10000 nM; and `CN(C)c1nc(-c2cccnc2)nc2ccc(-c3ccccc3Cl)cc12` [Compound 1332], with 1000 to 10000 nM.
Then `COc1ccc2nc(-c3cccnc3)nc(Nc3ccc4ncsc4c3)c2c1` [Compound 296], with 1000 to 10000 nM.
`Fc1ccc(Nc2nc(-c3cccnc3)nc3ccc(-c4ccccc4F)cc23)cc1Cl` [Compound 641]: the IC50 is under 1000 nM.
Then `CNc1nc(-c2cccnc2)nc2cc(-c3ccc(F)cc3)ccc12` [Compound 1360], with 1000 to 10000 nM; and `COc1ccc2nc(-c3cccnc3)nc(Nc3nc(-c4ccc(Cl)cc4)c(C)s3)c2c1` [Compound 461], with 1000 to 10000 nM; and `CCOc1ccc2nc(-c3ccnnc3)nc(Nc3cccc(OC(F)F)c3)c2c1` [Compound 1167], with 1000 to 10000 nM.
The same measure for `CNc1nc(-c2ccnnc2)nc2ccc(-c3ccc(F)cc3F)cc12` [Compound 1238]: 1000 to 10000 nM.
On to `N#Cc1cccc(-c2ccc3nc(-c4cccnc4)nc(Nc4ccc(F)c(Cl)c4)c3c2)c1` [Compound 633], for which the IC50 fell in the range of 1000 to 10000 nM.
Then `CNc1nc(-c2cccnc2)nc2cc(C)c(-c3ccc(F)c(F)c3)cc12` [Compound 1416], with 1000 to 10000 nM; and `CC(C)Oc1cccc(-c2ccc3nc(-c4cccnc4)nc(Nc4ccc(F)c(Cl)c4)c3c2)c1` [Compound 673], with 1000 to 10000 nM.
Turning to `Fc1ccc(-c2ccc3c(Nc4ccc(F)c(Cl)c4)nc(-c4cccnc4)nc3c2)cc1` [Compound 689], the IC50 is under 1000 nM.
Then `CNC(=O)c1ccc(-c2ccc3nc(-c4cccnc4)nc(Nc4ccc(F)c(Cl)c4)c3c2)cc1` [Compound 667], with under 1000 nM; and `COc1cc(Cl)cc(-c2ccc3nc(-c4cccnc4)nc(Nc4ccc(F)c(Cl)c4)c3c2)c1` [Compound 663], with under 1000 nM; and `COc1ncccc1-c1ccc2nc(-c3cccnc3)nc(Nc3ccc(F)c(Cl)c3)c2c1` [Compound 650], with under 1000 nM.
Then `N#Cc1cccc(Nc2nc(-c3cnccn3)nc3ccc(Cl)cc23)c1` [Compound 1158], with 1000 to 10000 nM; and `COc1ccc2nc(-c3cncnc3)nc(Nc3ccccc3C(N)=O)c2c1` [Compound 1172], with 1000 to 10000 nM; and `Fc1ccc(Nc2nc(-c3cccnc3)nc3cc(-c4ccccc4F)ccc23)cc1Cl` [Compound 687], with under 1000 nM.
`N#Cc1ccccc1-c1ccc2nc(-c3cccnc3)nc(Nc3ccc(F)c(Cl)c3)c2c1` [Compound 639]: the IC50 was under 1000 nM.
For `COc1ccc2nc(-c3cccnc3)nc(Nc3nc(-c4cccc(OC(F)(F)F)c4)cs3)c2c1` [Compound 455], the IC50 lay within 1000 to 10000 nM.
The same measure for `Nc1nc(-c2cccnc2)nc2cc(-c3cc(F)ccc3F)ccc12` [Compound 1395]: 1000 to 10000 nM; for `COc1ccc2nc(-c3cccnc3)nc(Nc3nc(-c4ccc(Cl)cc4)cs3)c2c1` [Compound 400]: 1000 to 10000 nM.
Then `CNc1nc(-c2cccnc2)nc2ccc(-c3cccc4occc34)cc12` [Compound 1370], with 1000 to 10000 nM.
As to `CN(C)c1nc(-c2cccnc2)nc2ccc(-c3ccc([N+](=O)[O-])cc3)cc12` [Compound 1336], the IC50 lay within 1000 to 10000 nM.
The same measure for `CNc1nc(-c2cccnc2)nc2c(C)c(-c3ccc(OC)cc3)ccc12` [Compound 1455]: 1000 to 10000 nM; for `CNc1nc(-c2cccnc2)nc2c(C)cc(-c3ccccc3OC)cc12` [Compound 1283]: over 10000 nM; for `COc1ccc2nc(-c3cnccn3)nc(Nc3cccc(C#N)c3)c2c1` [Compound 1193]: 1000 to 10000 nM.
Then `Fc1ccc(Nc2nc(-c3cccnc3)nc3ccc(-c4ccc5c(c4)OCO5)cc23)cc1Cl` [Compound 662], with under 1000 nM.
As for `CNc1nc(-c2cccnc2)nc2c(C)c(-c3cc(F)ccc3F)ccc12` [Compound 1450], the IC50 lay in the range of 1000 to 10000 nM.
